Converted amounts (≈) assume the structure as drawn. Read-outs that look alike come from different tables or passages of the source.
Columns and labels:
M. luteus = experiment: Antimicrobial activity vs. M. luteus (disk zones of inhibition); format: cell-based; details: for zone of inhibition at 0.1 µg/disc: 100 ng/6.35-mm disk; for zone of inhibition at 0.2 µg/disc: 200 ng/6.35-mm disk; for times less potent than ecteinascidins 729 and 743: relative to ecteinascidins 729 and 743
Procedure: (§1) The antimicrobial activities (vs. M. luteus) and the cytotoxic activities (vs. CV-1 cells) of the ecteinascidins and ecteinascidin 743 derivatives are shown in Table 1 and 2. […] All of the derivatives of ecteinascidin 743 that were prepared have antimicrobial and cytotoxic activities.

CV-1 cells = experiment: Cytotoxic activity vs. CV-1 cells (disk zones of inhibition); format: cell-based; details: for zone of inhibition at 0.05 µg/disc / zone of inhibition at 0.1 µg/disc / zone of inhibition at 0.2 µg/disc / zone of inhibition at 0.4 µg/disc / zone of inhibition at 0.8 µg/disc / zone of inhibition at 1.6 µg/disc: Cercopithecidae, read-out: Zones of Inhibition
Procedure: as §1

Staphylococcus aureus = experiment: Antimicrobial Spectrum, zones of inhibition; format: cell-based; details: 5 μg/disk, 6.35-mm disk
[1] = tested on: L1210 mouse leukemia cells; experiment: L1210 Tube Dilution Assay; format: cell-based
Text: The L1210 tube dilution assay is described in detail in a publication by L. H. Li, et al., Cancer Research, 39:4816 (1979). ID50 and ID90 refer to the concentration of ecteinascidin needed to inhibit cell growth by […], respectively.

Saccharomyces cerevisiae = experiment: Antimicrobial Spectrum, zones of inhibition; format: cell-based; details: 5 μg/disk, 6.35-mm disk
Bacillus subtilis syn = experiment: Antimicrobial Spectrum, zones of inhibition; format: cell-based; details: 5 μg/disk, 6.35-mm disk
Penicillium oxalicum = experiment: Antimicrobial Spectrum, zones of inhibition; format: cell-based; details: 5 μg/disk, 6.35-mm disk
Pseudomonas aeruginosa = experiment: Antimicrobial Spectrum, zones of inhibition; format: cell-based; details: 5 μg/disk, 6.35-mm disk
bacteria = experiment: Antibacterial Activity (disk zone of inhibition, Example 4); format: cell-based
Text: | Zone of inhibition (mm)

Sarcina lutea sens. = experiment: Antimicrobial Spectrum, zones of inhibition; format: cell-based; details: Micrococcus luteus; 5 μg/disk; 6.35-mm disk
Mycobacterium avium = experiment: Antimicrobial Spectrum, zones of inhibition; format: cell-based; details: 5 μg/disk, 6.35-mm disk
Klebsiella pneumoniae = experiment: Antimicrobial Spectrum, zones of inhibition; format: cell-based; details: 5 μg/disk, 6.35-mm disk
Bacillus subtilis = experiment: Antimicrobial Spectrum, zones of inhibition; format: cell-based; details: 5 μg/disk, 6.35-mm disk
Escherichia coli = experiment: Antimicrobial Spectrum, zones of inhibition; format: cell-based; details: 5 μg/disk, 6.35-mm disk
P388 leukemia = experiment: In vivo P388 mouse leukemia test
Text: Compounds of this invention are also active in vivo against P388 leukemia in mice. The P388 mouse leukemia test is described in detail in a publication by G. L. Neil et al., Cancer Treatment Reports, 63: 1971-1978 (1979).

[2] = Micrococcus luteus, 800 ng/6.35-mm disk
[3] = Micrococcus luteus, 1600 ng/6.35-mm disk
[4] = Micrococcus luteus, 400 ng/6.35-mm disk

Molecule: COc1cc2c(cc1OC)[C@@]1(CS[C@@H]3c4c(OC(C)=O)c(C)c5c(c4[C@H](COC1=O)N1[C@@H]3[C@H]3c4c(cc(C)c(OC)c4OC)C[C@@H]([C@@H]1O)N3C)OCO5)NCC2 [Di- -- O-methyl, Di-O-methylecteinascidin 743]
- zone of inhibition at 0.8 µg/disc (M. luteus; [2]): 8 mm
- zone of inhibition at 1.6 µg/disc (M. luteus; [3]): 11 mm
- zone of inhibition at 0.05 µg/disc (CV-1 cells): 13 mm
- zone of inhibition at 0.1 µg/disc (CV-1 cells): 15 mm
- zone of inhibition at 0.2 µg/disc (CV-1 cells): 17 mm
- zone of inhibition at 0.4 µg/disc (CV-1 cells): 13 mm
- zone of inhibition at 0.8 µg/disc (CV-1 cells): 16 mm
- zone of inhibition at 1.6 µg/disc (CV-1 cells): 18 mm

Molecule: COc1cc2c(cc1O)CCN[C@]21CS[C@@H]2c3c(O)c(C)c4c(c3[C@H](COC1=O)N1[C@@H]2[C@H]2c3c(cc(C)c(OC)c3O)C[C@@H]([C@@H]1O)N2C)OCO4 [Deacetyl, Deacetylecteinascidin 743]
- zone of inhibition at 0.1 µg/disc (M. luteus; Micrococcus luteus): 8 mm
- zone of inhibition at 0.2 µg/disc (M. luteus; Micrococcus luteus): 10 mm
- zone of inhibition at 0.4 µg/disc (M. luteus; [4]): 12 mm
- zone of inhibition at 0.8 µg/disc (M. luteus; [2]): 14 mm
- zone of inhibition at 1.6 µg/disc (M. luteus; [3]): 16 mm
- zone of inhibition at 0.4 µg/disc (CV-1 cells; 400 ng/6.35-mm disk): 11 mm
- zone of inhibition at 0.8 µg/disc (CV-1 cells; 800 ng/6.35-mm disk): 15 mm
- zone of inhibition at 1.6 µg/disc (CV-1 cells; 1600 ng/6.35-mm disk): 16 mm

Molecule: COc1cc2c(cc1O)CCN[C@]21CS[C@@H]2c3c(OC(C)=O)c(C)c4c(c3[C@H](COC1=O)N1C[C@@H]3Cc5cc(C)c(OC)c(O)c5[C@H]([C@H]21)N3C)OCO4 [Ecteinascidin 745]
- zone of inhibition at 5 µg/disc (Staphylococcus aureus): 0 mm
- IC90 ([1]; L1210, concentration needed to inhibit cell growth by 90 percent, in vitro, read-out: ID90 (the source's name)): 0.19 µg/mL (≈ 0.255 µM)
- IC50 ([1]; L1210, read-out: ID50): 0.088 µg/mL (≈ 0.118 µM)
- zone of inhibition at 5 µg/disc (Saccharomyces cerevisiae): 0 mm
- zone of inhibition at 5 µg/disc (Bacillus subtilis syn): 0 mm
- zone of inhibition at 5 µg/disc (Penicillium oxalicum): 0 mm
- zone of inhibition at 5 µg/disc (Pseudomonas aeruginosa): 0 mm
- antimicrobial activity (in words) (M. luteus; dilutions accurate to within a factor of 2): greatly reduced activity
- times less potent than ecteinascidins 729 and 743 (M. luteus): ~32 times
- Zone of inhibition (bacteria; 20 μg/disk): trace
- zone of inhibition at 40 µg/disc (bacteria; 40 μg/disk): 7 mm
- zone of inhibition at 5 µg/disc (Sarcina lutea sens.): 18 mm
- zone of inhibition at 5 µg/disc (Mycobacterium avium): 0 mm
- cytotoxic activity (in words) (CV-1 cells): greatly reduced activity
- zone of inhibition at 0.8 µg/disc (CV-1 cells; 800 ng/6.35-mm disk): 9 mm
- zone of inhibition at 1.6 µg/disc (CV-1 cells; 1600 ng/6.35-mm disk): 14 mm
- zone of inhibition at 5 µg/disc (Klebsiella pneumoniae): 0 mm
- zone of inhibition at 5 µg/disc (Bacillus subtilis): 0 mm
- zone of inhibition at 5 µg/disc (Escherichia coli): 0 mm
- T/C (P388 leukemia; 0.25 mg/kg, Example 6): ca. 100
- T/C (%) (P388 leukemia; 0.25 mg/kg, Table 4): 111%
- antitumor activity (in words) (P388 leukemia; mouse, in vivo): greatly reduced activity

Molecule: COc1cc2c(cc1OC(C)=O)CCN[C@]21CS[C@@H]2c3c(OC(C)=O)c(C)c4c(c3[C@H](COC1=O)N1[C@@H]2[C@H]2c3c(cc(C)c(OC)c3O)C[C@@H]([C@@H]1O)N2C)OCO4 [Monoacetyl, Acetylecteinascidin 743]
- zone of inhibition at 0.05 µg/disc (M. luteus; Micrococcus luteus, 50 ng/6.35-mm disk): 10 mm
- zone of inhibition at 0.1 µg/disc (M. luteus; Micrococcus luteus): 12 mm
- zone of inhibition at 0.2 µg/disc (M. luteus; Micrococcus luteus): 14 mm
- zone of inhibition at 0.4 µg/disc (M. luteus; [4]): 20 mm
- zone of inhibition at 0.8 µg/disc (M. luteus; [2]): 20 mm
- zone of inhibition at 1.6 µg/disc (M. luteus; [3]): 28 mm
- activity relative to ecteinascidin 743 (in words) (M. luteus; relative to the original compound, antimicrobial and cytotoxic): enhanced activity over the original compound
- zone of inhibition at 0.05 µg/disc (CV-1 cells; 50 ng/6.35-mm disk): 18 mm
- zone of inhibition at 0.1 µg/disc (CV-1 cells; 100 ng/6.35-mm disk): 22 mm
- zone of inhibition at 0.2 µg/disc (CV-1 cells; 200 ng/6.35-mm disk): 22 mm
- zone of inhibition at 0.4 µg/disc (CV-1 cells; 400 ng/6.35-mm disk): 25 mm
- zone of inhibition at 0.8 µg/disc (CV-1 cells; 800 ng/6.35-mm disk): 28 mm
- zone of inhibition at 1.6 µg/disc (CV-1 cells; 1600 ng/6.35-mm disk): 30 mm

Molecule: Ecteinascidin 759A
- Zones of Inhibition (M. luteus; 800 ng/6.35-mm disk): 8 mm
- Zones of Inhibition (M. luteus; 1600 ng/6.35-mm disk): 10 mm
- times less potent than ecteinascidins 729 and 743 (M. luteus): four to eight times less potent
- Zone of inhibition (bacteria; 1 μg/disk): 9 mm
- Zones of Inhibition (CV-1 cells; 400 ng/6.35-mm disk): 10 mm
- Zones of Inhibition (CV-1 cells; 800 ng/6.35-mm disk): 16 mm
- Zones of Inhibition (CV-1 cells; 1600 ng/6.35-mm disk): 16 mm

Molecule: COc1cc2c(cc1OC)[C@@]1(CS[C@@H]3c4c(OC(C)=O)c(C)c5c(c4[C@H](COC1=O)N1[C@@H]3[C@H]3c4c(cc(C)c(OC)c4O)C[C@@H]([C@@H]1O)N3C)OCO5)NCC2 [Mono- -- O-methyl, Mono-O-methylecteinascidin 743]
- zone of inhibition at 0.2 µg/disc (M. luteus; Micrococcus luteus): 8 mm
- zone of inhibition at 0.4 µg/disc (M. luteus; [4]): 11 mm
- zone of inhibition at 0.8 µg/disc (M. luteus; [2]): 14 mm
- zone of inhibition at 1.6 µg/disc (M. luteus; [3]): 14 mm
- zone of inhibition at 0.05 µg/disc (CV-1 cells): 13 mm
- zone of inhibition at 0.1 µg/disc (CV-1 cells): 22 mm
- zone of inhibition at 0.2 µg/disc (CV-1 cells): 20 mm
- zone of inhibition at 0.4 µg/disc (CV-1 cells): 23 mm
- zone of inhibition at 0.8 µg/disc (CV-1 cells): 25 mm
- zone of inhibition at 1.6 µg/disc (CV-1 cells): 26 mm

Molecule: COc1cc2c(cc1O)CCN[C@]21C[S+]([O-])[C@@H]2c3c(OC(C)=O)c(C)c4c(c3[C@H](COC1=O)N1[C@H]2[C@H]2c3c(cc(C)c(OC)c3O)C[C@@H]([C@H]1O)N2C)OCO4 (some centres unmarked) [Ecteinascidin 759B]
- Zones of Inhibition (M. luteus; 400 ng/6.35-mm disk): 10 mm
- Zones of Inhibition (M. luteus; 800 ng/6.35-mm disk): 13 mm
- Zones of Inhibition (M. luteus; 1600 ng/6.35-mm disk): 15 mm
- times less potent than ecteinascidins 729 and 743 (M. luteus): four to eight times less potent
- Zone of inhibition (bacteria; 0.1 μg/disk): 9 mm
- Zone of inhibition (bacteria; 1 μg/disk): 15 mm
- Zones of Inhibition (CV-1 cells; 100 ng/6.35-mm disk): 11 mm
- Zones of Inhibition (CV-1 cells; 200 ng/6.35-mm disk): 13 mm
- Zones of Inhibition (CV-1 cells; 400 ng/6.35-mm disk): 15 mm
- Zones of Inhibition (CV-1 cells; 800 ng/6.35-mm disk): 22 mm
- Zones of Inhibition (CV-1 cells; 1600 ng/6.35-mm disk): 22 mm

Molecule: COc1cc2c(cc1OC(=O)c1ccc(Br)cc1)CCN[C@]21CS[C@@H]2c3c(OC(C)=O)c(C)c4c(c3[C@H](COC1=O)N1[C@@H]2[C@H]2c3c(cc(C)c(OC)c3O)C[C@@H]([C@@H]1O)N2C)OCO4 [p-Bromobenzoyl, p-Bromobenzoylecteinascidin 743]
- zone of inhibition at 0.4 µg/disc (M. luteus; [4]): 8 mm
- zone of inhibition at 0.8 µg/disc (M. luteus; [2]): 10 mm
- zone of inhibition at 1.6 µg/disc (M. luteus; [3]): 12 mm
- zone of inhibition at 0.2 µg/disc (CV-1 cells; 200 ng/6.35-mm disk): 10 mm
- zone of inhibition at 0.4 µg/disc (CV-1 cells; 400 ng/6.35-mm disk): 12 mm
- zone of inhibition at 0.8 µg/disc (CV-1 cells; 800 ng/6.35-mm disk): 16 mm
- zone of inhibition at 1.6 µg/disc (CV-1 cells; 1600 ng/6.35-mm disk): 18 mm

Molecule: COc1cc2c(cc1O)CCN[C@]21CS[C@@H]2c3c(OC(C)=O)c(C)c4c(c3[C@H](COC1=O)N1[C@@H]2[C@H]2c3c(cc(C)c(OC)c3O)C[C@@H]([C@@H]1C#N)N2C)OCO4 [Ecteinascidin 770]
- zone of inhibition at 0.4 µg/disc (M. luteus; [4]): 9 mm
- zone of inhibition at 0.8 µg/disc (M. luteus; [2]): 12 mm
- zone of inhibition at 1.6 µg/disc (M. luteus; [3]): 15 mm
- times less potent than ecteinascidins 729 and 743 (M. luteus): four to eight times less potent
- Zone of inhibition (bacteria; 0.1 μg/disk): trace
- zone of inhibition at 1 µg/disc (bacteria; 1 μg/disk): 14 mm
- zone of inhibition at 0.05 µg/disc (CV-1 cells; 50 ng/6.35-mm disk): 10 mm
- zone of inhibition at 0.1 µg/disc (CV-1 cells; 100 ng/6.35-mm disk): 14 mm
- zone of inhibition at 0.2 µg/disc (CV-1 cells; 200 ng/6.35-mm disk): 16 mm
- zone of inhibition at 0.4 µg/disc (CV-1 cells; 400 ng/6.35-mm disk): 20 mm
- zone of inhibition at 0.8 µg/disc (CV-1 cells; 800 ng/6.35-mm disk): 24 mm
- zone of inhibition at 1.6 µg/disc (CV-1 cells; 1600 ng/6.35-mm disk): 25 mm

— patent publication US5089273A, “Ecteinascidins 729, 743, 745, 759A, 759B and 770” (priority 1990, dated 1992)
